Experimental data from US8586082B2, “Solid orally administerable pharmaceutical dosage forms with rapid active principle release” (Bayer Intellectual Property GmbH, priority 2005, dated 2013).
In brackets after ≈: the same amount, converted by molar mass.

Legend:
[1] = Solubility in water of active ingredient (I); assay type: physicochemical; settings: 25° C., crystal modification I
[2] = In vitro release, USP apparatus 2 (paddle), non-sink conditions (supersaturation); assay type: physicochemical; settings: 75 rpm, 900 ml acetate buffer pH 4.5, 37° C., active ingredient dose 20 mg
Description: The in vitro release investigations are carried out by USP release method with apparatus 2 (paddle) at a temperature of 37° C. The speed of rotation of the stirrer is 75 rpm (revolutions per minute) in 900 ml of an acetate buffer solution of pH 4.5, which is prepared from 29.9 g of sodium acetate trihydrate and 16.6 ml of glacial acetic acid in 10 l of water.
The investigations in this connection take place under sink or non-sink conditions.
Non-sink conditions: The investigations for examining the supersaturation (increase in solubility) take place without addition of a surfactant and with a dose of 20 mg of active ingredient (I) to be released.
To illustrate the supersaturation behaviour of exemplary formulations 1 to 6 (see below), as comparison the in vitro release (non-sink conditions) of the micronized crystalline active ingredient (I) in the thermodynamically stable crystal modification I and of a rapid-release tablet formulation produced by fluidized bed granulation and comprising micronized crystalline active ingredient (I) in crystal modification I were determined.

[3] = Bioavailability, comparative study in rats (3 mg/kg); assay type: in vivo; settings: male Wistar rats, suspension, geometric means
Description: The bioavailability was investigated by administering 3 mg/kg active ingredient (I) in each case to male Wistar rats: • a) in the form of exemplary formulation 1 (suspended in water) • b) in the form of exemplary formulation 2 (suspended in water) • c) in the form of exemplary formulation 3 (suspended in water) • d) in the form of the micronized crystalline active ingredient in thermodynamically stable crystal modification I (suspended in 0.5% strength aqueous methylhydroxyethylcellulose (proprietary name: Tylose MH 300))

[4] = Bioavailability, comparative study in dogs (150 mg/kg); assay type: in vivo; settings: Beagle dogs, crossover, suspension, geometric means

solubility [1] [µg/mL] | Release ([2]; 15 min) [%] | Release ([2]; 30 min) [%] | Release ([2]; 60 min) [%] | Release ([2]; 90 min) [%] | AUC (0-24)norm [3] [kg·h/L] | Cmax, norm [3] [kg/L] | Cmax ([3]; rat, in vivo, oral) [ng/mL] | AUC(0-t) ([3]; rat, in vivo, oral, read-out: AUC (0-24)) [ng·h/mL] | AUC (0-24)norm [4] [kg·h/L] | Cmax, norm [4] [kg/L] | Cmax ([4]; dog, in vivo, oral) [ng/mL] | AUC(0-t) ([4]; dog, in vivo, oral, read-out: AUC (0-24)) [ng·h/mL] | Compound
~7 (≈ 16.1 µM) |  |  |  |  |  |  |  |  |  |  |  |  | O=C(NC[C@H]1CN(c2ccc(N3CCOCC3=O)cc2)C(=O)O1)c1ccc(Cl)s1 [active ingredient (I), 5-Chloro-N-({(5S)-2-oxo-3-[4-(3-oxo-4-morpholinyl)phenyl]-1,3-oxazolidin-5-yl}methyl)-2-thiophenecarboxamide]
 | 23 | 34 | 41 | 44 | 0.254 | 0.074 | 222 | 762 | 0.081 | 0.015 | 2220 | 12200 | O=C(NC[C@H]1CN(c2ccc(N3CCOCC3=O)cc2)C(=O)O1)c1ccc(Cl)s1 [Comparative Formulation 1.1, 5-Chloro-N-({(5S)-2-oxo-3-[4-(3-oxo-4-morpholinyl)phenyl]-1,3-oxazolidin-5-yl}methyl)-2-thiophenecarboxamide]
